Data as given in patent publication US12031897B2, “Target-locking single-molecule nanoscopy” (Memorial Sloan Kettering Cancer Center, priority 2019, dated 2024).

System: Pol II (FLAG-SNAP-Rpb1) at the Pou5f1 locus
Assay: ChIP-qPCR of Pol II at the Pou5f1 locus after flavopiridol treatment (mESCs)
Format: cell-based, mouse
Conditions: 10 μM flavopiridol; by the 5-minute and 12.5-minute time points respectively
Protocol: mESCs. Confluent 15 cm dishes (˜10×10^6 OMG SNAP-Rpb1 clone 3 cells) were treated with 10 μM Flavopiridol or DMSO for the indicated times. Methanol-free formaldehyde (Thermo Fisher) was then directly added to the media to 1% v/v final concentration, and dishes were immediately placed on a rotator/shaker for 10 min at RT. Formaldehyde was quenched with 125 mM glycine for 5 min at RT, and cells were scraped and collected with centrifugation (800×g, 5 min at 4° C.) and washed twice with cold PBS. Cells were lysed with SDS lysis buffer (50 mM Tris-HCl pH 8, 10 mM EDTA, 1% SDS) containing protease inhibitors, and placed on ice for 10 min. Volume equivalent to 2×10^6 cells was sonicated to shear the chromatin (Branson SFX 150), and cleared using centrifugation (12,000 g, 10 min at 4° C.). The supernatant was diluted 1:10 in dilution buffer (0.01% SDS, 1.1% Triton X-100, 1.2 mM EDTA, 16.7 mM Tris-HCl pH 8, 167 mM NaCl)+protease inhibitors, pre-cleared using magnetic Protein G beads (Thermo Fisher Scientific 10003 D), for ˜2 hr at 4° C., cleared by separating the beads with a magnet, and 2% of the pre-cleared supernatant was kept at −20° C. as input. […] Eluted chromatin was analyzed with qPCR, using primer pairs specific for different Pou5f1/Oct4 regions.

With `CN1CC[C@H](c2c(O)cc(O)c3c(=O)cc(-c4ccccc4Cl)oc23)[C@H](O)C1` [flavopiridol] the “Pol II ChIP signal at Pou5f1 gene body and 3'UTR regions” value was “significant and near-complete losses”.
